The values that follow are results of earlier work, collected in patent US8633323B2, “Process for preparing bis(thiohydrazide amides)” (Synta Pharmaceuticals Corp., priority 2008, dated 2014).

Structures are written as SMILES.

Series [1] relates to stage 1V metastatic melanoma. The settings on record: in combination with Taxol, in relation to patients treated with Taxol alone; patients suffering from stage 1V metastatic melanoma.
The conditions of series [2]: background statement: effective administration has been challenging.

As for `CN(NC(=O)CC(=O)NN(C)C(=S)c1ccccc1)C(=S)c1ccccc1` [N-malonyl-bis(N′-methyl-N′-thiobenzoylhydrazide)], the time to progress result in series [1] is given as “increase the time to progress”. Also, in series [2], the solubility result is “low solubility”.
